Source: patent publication US7358250B2, “Pyrrolo[2,3-d]pyrimidines that modulate ACK1 activity” (Amgen Inc., priority 2004, dated 2008)

Legend:
C8 cells = assay: ACK1 Cell Based Assay, test (C8) cell line; conditions: 0.125% FCS, 20 to 24 h; for IC50: cell viability (Cytotox One kit)
Procedure: (§1) The ACK1 cell based assay is designed to find inhibitors of ACK1 kinase activity which would be prime candidates for the development of anticancer drugs. […] This dependency was confirmed utilizing ACK1 specific siRNAs.
(§2) For this assay, test (C8) and control (HeLa) cell lines are seeded in 96 well tissue culture plates (BD Falcon) at a density of 2 to 4×10^4 in DMEM/F12 (C8) or DMEM (HeLa) with 0.125% FCS in the presence of ACK1 inhibitors (final DMSO concentration is 0.5%, all tissue culture media are from Cellgro). After 20 to 24 h incubation at 37° C. and 5% CO2, cell viability is determined using the Cytotox One kit (Promega) according to the manufacturer's instructions.

LCK = molecular target: T1, LCK (Homo sapiens, UniProt P06239); assay: LCK-Homogeneous Time Resolved Fluorescent (HTRF) Kinase Assay; assay type: biochemical; conditions: LCK KD GST (225-509)
T1 construct: 15 μL of LCK KD GST (225-509) for a final volume of 40 μL; GST
Procedure: The LCK HTRF assay begins with LCK in the presence of ATP phosphorylating the biotinylated peptide Gastrin. The reaction incubates for 90 min. To quench the assay detection reagents are added which both stop the reaction by diluting out the enzyme and chelating the metals due to the presence of EDTA. Once the detection reagents are added the assay incubates for 30 min to allow for equilibration of the detection reagents.
The final concentration of gastrin is 1.2 μM. The final concentration of ATP is 0.5 μM (Km app=[…]) and the final concentration of LCK is […]. Buffer conditions are as follows: 50 mM HEPES pH 7.5, 50 mM NaCl, 20 mM MgCl, 5 mM MnCl, 2 mM DTT, 0.05% BSA.
The assay is quenched and stopped with 160 μL of detection reagent. Detection reagents are as follows: Buffer made of 50 mM Tris, pH 7.5, 100 mM NaCl, 3 mM EDTA, 0.05% BSA, 0.1% Tween20. Added to this buffer prior to reading is Steptavidin allophycocyanin (SA-APC) at a final conc in the assay of 0.0004 mg/mL, and europilated anti-phosphotyrosine Ab (Eu-anti-PY) at a final conc of 0.025 nM.
The assay plate is read in either a Discovery or a RubyStar. The eu-anti-PY is excited at 320 nm and emits at 615 nm to excite the SA-APC which in turn emits at 655 nm. The ratio of SA-APC at 655 nm (excited due to close proximity to the Eu-anti-PY because of phosphorylation of the peptide) to free Eu-anti-PY at 615 nm will give substrate phosphorylation.

ACK1 = molecular target: T2, ACK1 (Homo sapiens, UniProt Q07912); assay: ACK1 Enzymatic Assay; assay type: biochemical; conditions: 5 μM ATP, ELISA phosphotyrosine readout
T2 construct: a fusion of an N-terminal (His)6 Tag with amino acids 117 to 489 of ACK1; (His)6 (N); made in house; host or cells: baculovirus infected Hi-5 insect cells
Procedure: IC50 values of inventive compounds may be assessed as follows. […] The substrate of for the reaction is ACK1 itself (autophosphorylation) and poly-Glutamic acid-Tyrosine (PGT (4:1), Sigma catalog #PO275). The PGT is coated to Nunc 96 well plates at 80 μg/mL overnight at 4° C. […] Test compounds are added in 10 μL DMSO, and the reaction is started by addition of 10 μL kinase in assay buffer. The reaction proceeds 2 h at room temperature. Next the plates are washed four times, and the level of tyrosine phosphorylation in a given well is quantified by standard ELISA assay utilizing a phosphotyrosine antibody (PY20, Pierce).

HeLa cells = assay: ACK1 Cell Based Assay, control (HeLa) cell line; conditions: 0.125% FCS, 20 to 24 h
Procedure: as §1, §2

T2 sequence (Q07912 117-489): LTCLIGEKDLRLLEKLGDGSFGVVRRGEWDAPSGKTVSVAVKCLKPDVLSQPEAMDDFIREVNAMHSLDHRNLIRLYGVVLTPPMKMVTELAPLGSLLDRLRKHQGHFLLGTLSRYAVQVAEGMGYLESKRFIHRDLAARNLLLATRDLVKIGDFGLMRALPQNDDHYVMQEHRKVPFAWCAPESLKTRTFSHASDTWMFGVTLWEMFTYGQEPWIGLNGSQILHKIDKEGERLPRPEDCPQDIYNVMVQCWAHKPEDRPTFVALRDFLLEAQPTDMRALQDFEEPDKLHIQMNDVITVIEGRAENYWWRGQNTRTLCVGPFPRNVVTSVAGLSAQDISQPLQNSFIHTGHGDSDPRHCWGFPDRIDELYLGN
T1 sequence (P06239 225-509): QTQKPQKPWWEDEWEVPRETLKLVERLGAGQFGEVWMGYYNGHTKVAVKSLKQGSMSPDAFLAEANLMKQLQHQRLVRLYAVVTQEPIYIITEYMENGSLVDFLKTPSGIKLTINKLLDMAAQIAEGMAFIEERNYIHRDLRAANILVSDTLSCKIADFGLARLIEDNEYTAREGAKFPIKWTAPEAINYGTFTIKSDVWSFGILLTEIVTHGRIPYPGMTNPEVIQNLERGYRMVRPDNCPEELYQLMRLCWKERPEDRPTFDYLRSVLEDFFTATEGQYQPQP

Row | Compound | IC50 (C8 cells) [nM] | Ki (LCK) [nM] | Ki (ACK1) [nM] | cytotoxicity to C8 cells (C8 cells) | cytotoxic effect on HeLa cells (HeLa cells)
1 | CCOC(=O)CN(CC(=O)OCC)S(=O)(=O)c1ccc(-c2[nH]c3ncnc(NCC4CCCO4)c3c2-c2ccccc2)cc1 (centres unmarked) [Example 14, [Ethoxycarbonylmethyl-(4-{5-phenyl-4-[(tetrahydrofuran-2-ylmethyl)-amino]-7H-pyrrolo[2,3-d]pyrimidin-6-yl}-benzenesulfonyl)-amino]-acetic acid ethyl ester] | > 100 | 10 to 100 | < 10 |  | 
2 | NS(=O)(=O)c1ccc(-c2[nH]c3ncnc(NC[C@@H]4CCCO4)c3c2-c2ccccc2)cc1 [Example 15, 4-{5-Phenyl-4-[(tetrahydrofuran-2-ylmethyl)-amino]-7H-pyrrolo[2,3-d]pyrimidin-6-yl}-benzenesulfonamide] | > 100 | 10 to 100 | < 10 |  | 
3 | O=S(=O)(NCC(O)CO)c1ccc(-c2[nH]c3ncnc(NC[C@@H]4CCCO4)c3c2-c2ccccc2)cc1 (some centres unmarked) [Example 16, N-(2,3-Dihydroxy-propyl)-4-{5-phenyl-4-[(tetrahydrofuran-2-ylmethyl)-amino]-7H-pyrrolo[2,3-d]pyrimidin-6-yl}-benzenesulfonamide] | > 100 | < 10 | < 10 |  | 
4 | O=C(O)CNS(=O)(=O)c1ccc(-c2[nH]c3ncnc(NC[C@@H]4CCCO4)c3c2-c2ccccc2)cc1 [Example 17] | > 100 | 10 to 100 | < 10 |  | 
5 | O=S(=O)(NCCO)c1ccc(-c2[nH]c3ncnc(NC[C@@H]4CCCO4)c3c2-c2ccccc2)cc1 [Example 18, N-(2-Hydroxy-ethyl)-4-{5-phenyl-4-[(tetrahydro-furan-2-ylmethyl)-amino]-7H-pyrrolo[2,3-d]pyrimidin-6-yl}-benzenesulfonamide] | > 100 | < 10 | < 10 |  | 
6 | O=S(=O)(c1ccc(-c2[nH]c3ncnc(NC[C@@H]4CCCO4)c3c2-c2ccccc2)cc1)N(CCO)CCO [Example 19, N,N-Bis-(2-hydroxyethyl)-4-{5-phenyl-4-[(tetrahydro-furan-2-ylmethyl)-amino]-7H-pyrrolo[2,3-d]pyrimidin-6-yl}-benzenesulfonamide] | > 100 | < 10 | < 10 |  | 
7 | CN(C)CCOc1ccc(-c2[nH]c3ncnc(NC[C@@H]4CCCO4)c3c2-c2ccccc2)cc1 [Example 20, {6-[4-(2-Dimethylamino-ethoxy)-phenyl]-5-phenyl-7H-pyrrolo[2,3-d]pyrimidin-4-yl}-(tetrahydro-furan-2-ylmethyl)-amine] | 10 to 100 | < 10 | < 10 | cytotoxic | no cytotoxic effect
8 | c1ccc(-c2c(-c3ccc(OCCN4CCOCC4)cc3)[nH]c3ncnc(NCC4CCCO4)c23)cc1 (centres unmarked) [Example 21, {6-[4-(2-Morpholin-4-yl-ethoxy)-phenyl]-5-phenyl-7H-pyrrolo[2,3-d]pyrimidin-4-yl}-(tetrahydro-furan-2-ylmethyl)-amine] | 10 to 100 | < 10 | < 10 |  | 
9 | c1ccc(-c2c(-c3ccc(OCCN4CCCC4)cc3)[nH]c3ncnc(NCC4CCCO4)c23)cc1 (centres unmarked) [Example 22, {5-Phenyl-6-[4-(2-pyrrolidin-1-yl-ethoxy)-phenyl]-7H-pyrrolo[2,3-d]pyrimidin-4-yl}-(tetrahydrofuran-2-ylmethyl)-amine] | 10 to 100 | < 10 | < 10 |  | 
10 | O=C1CCCN1CCOc1ccc(-c2[nH]c3ncnc(NCC4CCCO4)c3c2-c2ccccc2)cc1 (centres unmarked) [Example 23, 1-[2-(4-{5-Phenyl-4-[(tetrahydrofuran-2-ylmethyl)-amino]-7H-pyrrolo[2,3-d]pyrimidin-6-yl}-phenoxy)-ethyl]-pyrrolidin-2-one] | 10 to 100 | < 10 | < 10 |  | 
11 | CN1CCCC1CCOc1ccc(-c2[nH]c3ncnc(NCC4CCCO4)c3c2-c2ccccc2)cc1 (centres unmarked) [Example 24, (6-{4-[2-(1-Methyl-pyrrolidin-2-yl)-ethoxy]-phenyl}-5-phenyl-7H-pyrrolo[2,3-d]pyrimidin-4-yl)-(tetrahydrofuran-2-ylmethyl)-amine] | > 100 | 10 to 100 | 10 to 100 |  | 
12 | N#CCOc1ccc(-c2[nH]c3ncnc(NC[C@@H]4CCCO4)c3c2-c2ccccc2)cc1 [Example 25, (4-{5-Phenyl-4-[(tetrahydrofuran-2-ylmethyl)-amino]-7H-pyrrolo[2,3-d]pyrimidin-6-yl}-phenoxy)-acetonitrile] | 10 to 100 | 10 to 100 | < 10 |  | 
13 | CNC(=O)c1ccc(-c2[nH]c3ncnc(NC[C@@H]4CCCO4)c3c2-c2ccccc2)cc1 [Example 26, N-Methyl-4-{5-phenyl-4-[(tetrahydrofuran-2-ylmethyl)-amino]-7H-pyrrolo[2,3-d]pyrimidin-6-yl}-benzamide] | 10 to 100 | < 10 | < 10 |  | 
14 | CN(C)C(=O)c1ccc(-c2[nH]c3ncnc(NCC4CCCO4)c3c2-c2ccccc2)cc1 (centres unmarked) [Example 27, N,N-Dimethyl-4-{5-phenyl-4-[(tetrahydrofuran-2-ylmethyl)-amino]-7H-pyrrolo[2,3-d]pyrimidin-6-yl}-benzamide] | 10 to 100 | < 10 | < 10 |  | 
15 | O=C(c1ccc(-c2[nH]c3ncnc(NCC4CCCO4)c3c2-c2ccccc2)cc1)N1CCOCC1 (centres unmarked) [Example 28, Morpholin-4-yl-(4-{5-phenyl-4-[(tetrahydrofuran-2-ylmethyl)-amino]-7H-pyrrolo[2,3-d]pyrimidin-6-yl}-phenyl)-methanone] | 10 to 100 | > 100 | < 10 |  | 
16 | O=C(NC1CC1)c1ccc(-c2[nH]c3ncnc(NCC4CCCO4)c3c2-c2ccccc2)cc1 (centres unmarked) [Example 29, N-Cyclopropyl-4-{5-phenyl-4-[(tetrahydrofuran-2-ylmethyl)-amino]-7H-pyrrolo[2,3-d]pyrimidin-6-yl}-benzamide] | 10 to 100 | < 10 | < 10 |  | 
17 | COCCNC(=O)c1ccc(-c2[nH]c3ncnc(NCC4CCCO4)c3c2-c2ccccc2)cc1 (centres unmarked) [Example 30, N-(2-Methoxyethyl)-4-{5-phenyl-4-[(tetrahydrofuran-2-ylmethyl)-amino]-7H-pyrrolo[2,3-d]pyrimidin-6-yl}-benzamide] | 10 to 100 | < 10 | < 10 |  | 
18 | O=C(NCCN1CCOCC1)c1ccc(-c2[nH]c3ncnc(NCC4CCCO4)c3c2-c2ccccc2)cc1 (centres unmarked) [Example 31, N-(2-Morpholin-4-yl-ethyl)-4-{5-phenyl-4-[(tetrahydrofuran-2-ylmethyl)-amino]-7H-pyrrolo[2,3-d]pyrimidin-6-yl}-benzamide] | > 100 | < 10 | < 10 |  | 
19 | CN(C)CCNC(=O)c1ccc(-c2[nH]c3ncnc(NCC4CCCO4)c3c2-c2ccccc2)cc1 (centres unmarked) [Example 32, N-(2-Dimethylamino-ethyl)-4-{5-phenyl-4-[(tetrahydrofuran-2-ylmethyl)-amino]-7H-pyrrolo[2,3-d]pyrimidin-6-yl}-benzamide] | 10 to 100 | < 10 | < 10 |  | 
20 | CN(C)CCOc1ccc(-c2[nH]c3ncnc(NCC4CCC4)c3c2-c2ccccc2)cc1 [Example 34, Cyclobutylmethyl-{6-[4-(2-dimethylamino-ethoxy)-phenyl]-5-phenyl-7H-pyrrolo[2,3-d]pyrimidin-4-yl}-amine] | > 100 | < 10 | 10 to 100 |  | 
